Patent US20090191636A1, “Method of Producing Transgenic Graminaceous Cells and Plants” (priority 2006, published 2009)

What was measured:
[1] = test system: wheat embryos derived from mature dried grain of the cultivar Bobwhite; test: Effect of D-amino acids on regeneration of wheat from embryos of mature dried grain (Bobwhite); format: cell-based, Triticum aestivum; conditions: for proportion (%) of explants regenerating after 3 weeks, Average / proportion (%) of explants regenerating after 3 weeks, Experiment number 1 / proportion (%) of explants regenerating after 3 weeks, Experiment number 2 / proportion (%) of explants regenerating after 3 weeks, Experiment number 3: n = 20
Method: (§1) A range of concentrations of the D-amino acids D-serine and D-alanine were tested for effects on wheat regeneration and germination from embryos derived from mature dried grain of the cultivar Bobwhite.

[2] = test system: wheat mature dried grain of the cultivar Ventura; test: Effect of D-amino acids on germination of wheat mature dried grain (Ventura); format: in vivo; conditions: n = 15
Method: [Worded in the source for another variant; this variant is reported under the same test.] as §1

[3] = test system: wheat embryos derived from mature dried grain of the cultivar Ventura; test: Effect of D-amino acids on regeneration of wheat from embryos of mature dried grain (Ventura); format: cell-based; conditions: n = 20
[4] = test system: wheat mature dried grain of the cultivar Bobwhite; test: Effect of D-amino acids on germination of wheat mature dried grain (Bobwhite); format: in vivo, Triticum aestivum; conditions: n = 15
Method: as §1

## C[C@@H](N)C(=O)O [D-alanine]
[1]; 0.5 mM
  proportion (%) of explants regenerating after 3 weeks, Average: 20%
  proportion (%) of explants regenerating after 3 weeks, Experiment number 1: 30%
  proportion (%) of explants regenerating after 3 weeks, Experiment number 2: 30%
  proportion (%) of explants regenerating after 3 weeks, Experiment number 3: 0%
[1]; 1 mM
  proportion (%) of explants regenerating after 3 weeks, Average: 20%
  proportion (%) of explants regenerating after 3 weeks, Experiment number 1: 35%
  proportion (%) of explants regenerating after 3 weeks, Experiment number 2: 21%
  proportion (%) of explants regenerating after 3 weeks, Experiment number 3: 5%
[1]; 3 mM
  proportion (%) of explants regenerating after 3 weeks, Average: 15%
  proportion (%) of explants regenerating after 3 weeks, Experiment number 1: 20%
  proportion (%) of explants regenerating after 3 weeks, Experiment number 2: 25%
  proportion (%) of explants regenerating after 3 weeks, Experiment number 3: 0%
[1]; 5 mM
  proportion (%) of explants regenerating after 3 weeks, Average: 3%
  proportion (%) of explants regenerating after 3 weeks, Experiment number 1: 5%
  proportion (%) of explants regenerating after 3 weeks, Experiment number 2: 5%
  proportion (%) of explants regenerating after 3 weeks, Experiment number 3: 0%
[1]; 10 mM
  proportion (%) of explants regenerating after 3 weeks, Average: 0%
  proportion (%) of explants regenerating after 3 weeks, Experiment number 1: 0%
  proportion (%) of explants regenerating after 3 weeks, Experiment number 2: 0%
  proportion (%) of explants regenerating after 3 weeks, Experiment number 3: 0%
[1]; regeneration and germination (Tables 4 and 5)
  levels that reduced the regeneration and germination of wheat plants: > 5 mM
[2]; 0.5 mM
  germination: proportion (%) of explants regenerating after 1 week, Average: 73%
  germination: proportion (%) of explants regenerating after 1 week, Experiment number 1: 65%
  germination: proportion (%) of explants regenerating after 1 week, Experiment number 2: 65%
  germination: proportion (%) of explants regenerating after 1 week, Experiment number 3: 90%
[2]; 1 mM
  germination: proportion (%) of explants regenerating after 1 week, Average: 75%
  germination: proportion (%) of explants regenerating after 1 week, Experiment number 1: 75%
  germination: proportion (%) of explants regenerating after 1 week, Experiment number 2: 75%
  germination: proportion (%) of explants regenerating after 1 week, Experiment number 3: 75%
[2]; 3 mM
  germination: proportion (%) of explants regenerating after 1 week, Average: 75%
  germination: proportion (%) of explants regenerating after 1 week, Experiment number 1: 80%
  germination: proportion (%) of explants regenerating after 1 week, Experiment number 2: 65%
  germination: proportion (%) of explants regenerating after 1 week, Experiment number 3: 80%
[2]; 5 mM
  germination: proportion (%) of explants regenerating after 1 week, Average: 67%
  germination: proportion (%) of explants regenerating after 1 week, Experiment number 1: 70%
  germination: proportion (%) of explants regenerating after 1 week, Experiment number 2: 55%
  germination: proportion (%) of explants regenerating after 1 week, Experiment number 3: 75%
[2]; 10 mM
  germination: proportion (%) of explants regenerating after 1 week, Average: 47%
  germination: proportion (%) of explants regenerating after 1 week, Experiment number 1: 65%
  germination: proportion (%) of explants regenerating after 1 week, Experiment number 2: 30%
  germination: proportion (%) of explants regenerating after 1 week, Experiment number 3: 45%
[2]; 20 mM
  germination: proportion (%) of explants regenerating after 1 week, Average: 5%
  germination: proportion (%) of explants regenerating after 1 week, Experiment number 1: 5%
  germination: proportion (%) of explants regenerating after 1 week, Experiment number 2: 25%
  germination: proportion (%) of explants regenerating after 1 week, Experiment number 3: 40%
[3]; 0.5 mM
  proportion (%) of explants regenerating after 3 weeks, Average: 8%
  proportion (%) of explants regenerating after 3 weeks, Experiment number 1: 10%
  proportion (%) of explants regenerating after 3 weeks, Experiment number 2: 10%
  proportion (%) of explants regenerating after 3 weeks, Experiment number 3: 5%
[3]; 1 mM
  proportion (%) of explants regenerating after 3 weeks, Average: 5%
  proportion (%) of explants regenerating after 3 weeks, Experiment number 1: 0%
  proportion (%) of explants regenerating after 3 weeks, Experiment number 2: 10%
  proportion (%) of explants regenerating after 3 weeks, Experiment number 3: 5%
[3]; 3 mM
  proportion (%) of explants regenerating after 3 weeks, Average: 7%
  proportion (%) of explants regenerating after 3 weeks, Experiment number 1: 10%
  proportion (%) of explants regenerating after 3 weeks, Experiment number 2: 10%
  proportion (%) of explants regenerating after 3 weeks, Experiment number 3: 0%
[3]; 5 mM
  proportion (%) of explants regenerating after 3 weeks, Average: 3%
  proportion (%) of explants regenerating after 3 weeks, Experiment number 1: 5%
  proportion (%) of explants regenerating after 3 weeks, Experiment number 2: 5%
  proportion (%) of explants regenerating after 3 weeks, Experiment number 3: 0%
[3]; 10 mM
  proportion (%) of explants regenerating after 3 weeks, Average: 0%
  proportion (%) of explants regenerating after 3 weeks, Experiment number 1: 0%
  proportion (%) of explants regenerating after 3 weeks, Experiment number 2: 0%
  proportion (%) of explants regenerating after 3 weeks, Experiment number 3: 0%
[3]; 20 mM
  proportion (%) of explants regenerating after 3 weeks, Average: 0%
  proportion (%) of explants regenerating after 3 weeks, Experiment number 1: 0%
  proportion (%) of explants regenerating after 3 weeks, Experiment number 2: 0%
  proportion (%) of explants regenerating after 3 weeks, Experiment number 3: 0%
[4]; 0.5 mM
  proportion (%) of explants germinated after 1 week, Average: 77%
  proportion (%) of explants germinated after 1 week, Experiment Number 1: 55%
  proportion (%) of explants germinated after 1 week, Experiment Number 2: 75%
  proportion (%) of explants germinated after 1 week, Experiment Number 3: 100%
[4]; 1 mM
  proportion (%) of explants germinated after 1 week, Average: 77%
  proportion (%) of explants germinated after 1 week, Experiment Number 1: 70%
  proportion (%) of explants germinated after 1 week, Experiment Number 2: 80%
  proportion (%) of explants germinated after 1 week, Experiment Number 3: 80%
[4]; 3 mM
  proportion (%) of explants germinated after 1 week, Average: 73%
  proportion (%) of explants germinated after 1 week, Experiment Number 1: 70%
  proportion (%) of explants germinated after 1 week, Experiment Number 2: 70%
  proportion (%) of explants germinated after 1 week, Experiment Number 3: 80%
[4]; 5 mM
  proportion (%) of explants germinated after 1 week, Average: 62%
  proportion (%) of explants germinated after 1 week, Experiment Number 1: 50%
  proportion (%) of explants germinated after 1 week, Experiment Number 2: 85%
  proportion (%) of explants germinated after 1 week, Experiment Number 3: 50%
[4]; 10 mM
  proportion (%) of explants germinated after 1 week, Average: 28%
  proportion (%) of explants germinated after 1 week, Experiment Number 1: 10%
  proportion (%) of explants germinated after 1 week, Experiment Number 2: 35%
  proportion (%) of explants germinated after 1 week, Experiment Number 3: 40%
